Experimental data as given in publication PMC7785020, “A unique hormonal recognition feature of the human glucagon-like peptide-2 receptor” (Cell Research, 2020).
Where a chain is given by its changes, count along the chain named.

Assays:
GLP-2R W249^ECL1A = molecular target: T1, GLP-2R W249^ECL1A (Homo sapiens, UniProt O95838, W249A); test: radioligand competition binding, W249^ECL1A; design: WT (1–553); expressed in transfected cells; conditions: COS-7, W249^ECL1A; [^125I]GLP-2(1–33, M10Y) 10–15 pM, 4 h, 4 °C; mean ± SEM, n ≥ 3 in duplicate
T1 sequence (O95838 1-553 W249A): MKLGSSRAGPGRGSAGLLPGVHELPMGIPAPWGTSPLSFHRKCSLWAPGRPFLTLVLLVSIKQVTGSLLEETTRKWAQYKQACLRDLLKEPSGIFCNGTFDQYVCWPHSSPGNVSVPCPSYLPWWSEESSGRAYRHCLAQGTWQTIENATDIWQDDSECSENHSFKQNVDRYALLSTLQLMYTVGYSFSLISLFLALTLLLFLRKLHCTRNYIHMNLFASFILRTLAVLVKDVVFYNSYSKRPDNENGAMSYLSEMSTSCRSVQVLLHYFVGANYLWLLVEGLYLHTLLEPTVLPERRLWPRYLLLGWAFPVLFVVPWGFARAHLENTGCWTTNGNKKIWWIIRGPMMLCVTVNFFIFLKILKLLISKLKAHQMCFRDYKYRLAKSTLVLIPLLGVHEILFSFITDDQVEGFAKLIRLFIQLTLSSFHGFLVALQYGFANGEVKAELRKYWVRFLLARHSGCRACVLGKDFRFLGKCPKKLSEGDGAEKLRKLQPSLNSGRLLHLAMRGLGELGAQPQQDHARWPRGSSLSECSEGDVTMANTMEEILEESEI
Method: (§1) A stepwise oxidation reaction was performed by addition of 6 aliquots of 5 µL ChloramineT (30 µL/mL) with a 1-min interval during constant stirring. The reaction was terminated by the addition of 400 µL phase A (0.1% trifluoracetic acid) before being fractionated into 1 mL volume by reverse-phase high-performance liquid chromatography (RP-HPLC, Waters 600 SimiPrep system) on a C18 column. The iodinated protein was […] by increasing concentrations of phase B (Acetonitrile + 0.1% TFA) and tested for competitive binding ability.
(§2) One day before transfection, the COS-7 cells were seeded in 75 cm^2 culture flasks (3 million cells/flask) in DMEM, containing 3.9 g/L NaHCO3 and supplemented with 10% FBS, 1% L-glutamine, 180 units/mL penicillin and 45 µg/mL streptomycin. After an overnight culture at 37 °C, 10% CO2 and 95% air humidity, the cells were transiently transfected with different GLP-2R constructs or pcDNA3.1 vector as previously described.[52] Following 24-h incubation, the cells were transferred to Costa® microtiter plates (150,000 cells/well, PerkinElmer) to achieve a 5%–10% specific binding. […] The cells were then washed twice in binding buffer (4 °C), lysed and counted for radioactivity using a Wallac Gamma Counter (PerkinElmer).

GLP-2R N334^ECL2A = molecular target: T2, GLP-2R N334^ECL2A (Homo sapiens, UniProt O95838, N334A); test: radioligand competition binding, N334^ECL2A; design: WT (1–553); expressed in transfected cells; host or cells: COS-7; conditions: COS-7, N334^ECL2 A; [^125I]GLP-2(1–33, M10Y) 10–15 pM, 4 h, 4 °C; mean ± SEM, n ≥ 3 in duplicate
T2 sequence (O95838 1-553 N334A): T1 sequence (O95838 1-553 W249A) with A249W, N334A
Method: as §1, §2

GLP-2R W340^5.36A = molecular target: T3, GLP-2R W340^5.36A (Homo sapiens, UniProt O95838, W340A); test: radioligand competition binding, W340^5.36A; design: WT (1–553); expressed in transfected cells; conditions: COS-7, W340^5.36A; [^125I]GLP-2(1–33, M10Y) 10–15 pM, 4 h, 4 °C; mean ± SEM, n ≥ 3 in duplicate
T3 sequence (O95838 1-553 W340A): T1 sequence (O95838 1-553 W249A) with A249W, W340A
Method: as §1, §2

GLP-2R WT (1–553) = molecular target: T4, GLP-2R WT (1–553) (Homo sapiens, UniProt O95838); test: radioligand competition binding, WT; conditions: COS-7, WT (1–553); [^125I]GLP-2(1–33, M10Y) 10–15 pM, 4 h, 4 °C; mean ± SEM, n ≥ 3 in duplicate
T4 construct: WT (1–553); expressed in transfected cells; host or cells: COS-7
Method: as §1, §2

T4 sequence (O95838 whole entry): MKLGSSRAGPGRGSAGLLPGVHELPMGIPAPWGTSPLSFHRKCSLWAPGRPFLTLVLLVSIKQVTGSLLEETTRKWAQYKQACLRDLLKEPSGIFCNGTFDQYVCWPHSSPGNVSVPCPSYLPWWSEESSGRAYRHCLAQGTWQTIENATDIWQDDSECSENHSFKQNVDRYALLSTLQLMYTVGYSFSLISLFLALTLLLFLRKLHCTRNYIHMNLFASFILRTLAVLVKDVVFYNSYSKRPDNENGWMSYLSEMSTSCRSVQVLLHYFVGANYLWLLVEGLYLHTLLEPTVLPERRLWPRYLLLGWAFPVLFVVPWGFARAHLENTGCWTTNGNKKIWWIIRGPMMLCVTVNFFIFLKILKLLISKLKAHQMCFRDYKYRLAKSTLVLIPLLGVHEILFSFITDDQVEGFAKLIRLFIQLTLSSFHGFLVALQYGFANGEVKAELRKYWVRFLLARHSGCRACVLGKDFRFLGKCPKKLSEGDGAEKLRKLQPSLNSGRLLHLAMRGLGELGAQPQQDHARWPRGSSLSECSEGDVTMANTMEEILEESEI

Row | Structure (SMILES) | % Binding of WT (GLP-2R W249^ECL1A) | % Binding of WT (GLP-2R N334^ECL2A) | % Binding of WT (GLP-2R W340^5.36A) | % Binding of WT (GLP-2R WT (1–553))
1 | CC[C@H](C)[C@H](NC(=O)[C@H](Cc1ccccc1)NC(=O)[C@H](CC(=O)O)NC(=O)[C@H](CCCNC(=N)N)NC(=O)[C@H](C)NC(=O)[C@H](C)NC(=O)[C@H](CC(C)C)NC(=O)[C@H](CC(N)=O)NC(=O)[C@H](CC(=O)O)NC(=O)[C@H](CC(C)C)NC(=O)[C@@H](NC(=O)[C@@H](NC(=O)[C@H](CC(N)=O)NC(=O)[C@H](CCSC)NC(=O)[C@H](CCC(=O)O)NC(=O)[C@H](CC(=O)O)NC(=O)[C@H](CO)NC(=O)[C@H](Cc1ccccc1)NC(=O)[C@H](CO)NC(=O)CNC(=O)[C@H](CC(=O)O)NC(=O)CNC(=O)[C@@H](N)Cc1c[nH]cn1)[C@@H](C)O)[C@@H](C)CC)C(=O)N[C@@H](CC(N)=O)C(=O)N[C@@H](Cc1c[nH]c2ccccc12)C(=O)N[C@@H](CC(C)C)C(=O)N[C@H](C(=O)N[C@@H](CCC(N)=O)C(=O)N[C@H](C(=O)N[C@@H](CCCCN)C(=O)N[C@H](C(=O)N[C@H](C(=O)N[C@@H](CC(=O)O)C(=O)O)[C@@H](C)O)[C@@H](C)CC)[C@@H](C)O)[C@@H](C)CC [Teduglutide] | 2.9 ± 2.0 % | 2.0 ± 2.1 % | 8.6 ± 1.8 % | 99.7 ± 1.9%
2 | CC[C@H](C)[C@H](NC(=O)[C@H](Cc1ccccc1)NC(=O)[C@H](CC(=O)O)NC(=O)[C@H](CCCNC(=N)N)NC(=O)[C@H](C)NC(=O)[C@H](C)NC(=O)[C@H](CC(C)C)NC(=O)[C@H](CC(N)=O)NC(=O)[C@H](CC(=O)O)NC(=O)[C@H](CC(C)C)NC(=O)[C@@H](NC(=O)[C@@H](NC(=O)[C@H](CC(N)=O)NC(=O)[C@H](CCSC)NC(=O)[C@H](CCC(=O)O)NC(=O)[C@H](CC(=O)O)NC(=O)[C@H](CO)NC(=O)[C@H](Cc1ccccc1)NC(=O)[C@H](CO)NC(=O)CNC(=O)[C@H](CC(=O)O)NC(=O)[C@H](C)NC(=O)[C@@H](N)Cc1c[nH]cn1)[C@@H](C)O)[C@@H](C)CC)C(=O)N[C@@H](CC(N)=O)C(=O)N[C@@H](Cc1c[nH]c2ccccc12)C(=O)N[C@@H](CC(C)C)C(=O)N[C@H](C(=O)N[C@@H](CCC(N)=O)C(=O)N[C@H](C(=O)N[C@@H](CCCCN)C(=O)N[C@H](C(=O)N[C@H](C(=O)N[C@@H](CC(=O)O)C(=O)O)[C@@H](C)O)[C@@H](C)CC)[C@@H](C)O)[C@@H](C)CC [Human GLP-2 (1–33)] | 2.2 ± 1.2 % | 2.4 ± 1.3 % | 7.3 ± 0.6 % | 99.2 ± 2.3%
